The NIST ThermoML archive (doi:10.1016/j.jct.2016.03.026)
± gives the expanded uncertainty stated by the source.

Experiment: xn = mol fraction of the nth substance listed
Settings: 283.15 K, Fluid (supercritical or subcritical phases), Vibrating tube method, x1 = 0.97

## O=C=O [carbon dioxide] + CO
10450 kPa
  mass density: 927.45 ± 0.8 kg/m3
10475 kPa
  mass density: 927.61 ± 0.8 kg/m3
10500 kPa
  mass density: 927.78 ± 0.8 kg/m3
10525 kPa
  mass density: 927.92 ± 0.8 kg/m3
10550 kPa
  mass density: 928.1 ± 0.8 kg/m3
10575 kPa
  mass density: 928.27 ± 0.8 kg/m3
10600 kPa
  mass density: 928.46 ± 0.8 kg/m3
10625 kPa
  mass density: 928.66 ± 0.8 kg/m3
10650 kPa
  mass density: 928.76 ± 0.8 kg/m3
10675 kPa
  mass density: 928.84 ± 0.8 kg/m3
10700 kPa
  mass density: 929 ± 0.8 kg/m3
10725 kPa
  mass density: 929.16 ± 0.8 kg/m3
10750 kPa
  mass density: 929.25 ± 0.8 kg/m3
10775 kPa
  mass density: 929.45 ± 0.8 kg/m3
10800 kPa
  mass density: 929.62 ± 0.8 kg/m3
10825 kPa
  mass density: 929.74 ± 0.8 kg/m3
10850 kPa
  mass density: 929.88 ± 0.8 kg/m3
10875 kPa
  mass density: 930.06 ± 0.8 kg/m3
10900 kPa
  mass density: 930.27 ± 0.8 kg/m3
10925 kPa
  mass density: 930.41 ± 0.8 kg/m3
10950 kPa
  mass density: 930.57 ± 0.8 kg/m3
10975 kPa
  mass density: 930.73 ± 0.8 kg/m3
11000 kPa
  mass density: 930.89 ± 0.8 kg/m3
11025 kPa
  mass density: 931.03 ± 0.8 kg/m3
11050 kPa
  mass density: 931.19 ± 0.8 kg/m3
11075 kPa
  mass density: 931.33 ± 0.8 kg/m3
11100 kPa
  mass density: 931.58 ± 0.8 kg/m3
11125 kPa
  mass density: 931.69 ± 0.8 kg/m3
11150 kPa
  mass density: 931.86 ± 0.8 kg/m3
11175 kPa
  mass density: 932.02 ± 0.8 kg/m3
11200 kPa
  mass density: 932.18 ± 0.8 kg/m3
11225 kPa
  mass density: 932.34 ± 0.8 kg/m3
11250 kPa
  mass density: 932.51 ± 0.8 kg/m3
11275 kPa
  mass density: 932.67 ± 0.8 kg/m3
11300 kPa
  mass density: 932.9 ± 0.8 kg/m3
11325 kPa
  mass density: 933.08 ± 0.8 kg/m3
11350 kPa
  mass density: 933.16 ± 0.8 kg/m3
11375 kPa
  mass density: 933.37 ± 0.8 kg/m3
11400 kPa
  mass density: 933.49 ± 0.8 kg/m3
11425 kPa
  mass density: 933.66 ± 0.8 kg/m3
11450 kPa
  mass density: 933.88 ± 0.8 kg/m3
11475 kPa
  mass density: 933.98 ± 0.8 kg/m3
11500 kPa
  mass density: 934.17 ± 0.8 kg/m3
11525 kPa
  mass density: 934.39 ± 0.8 kg/m3
11550 kPa
  mass density: 934.47 ± 0.8 kg/m3
11575 kPa
  mass density: 934.64 ± 0.8 kg/m3
11600 kPa
  mass density: 934.8 ± 0.8 kg/m3
11625 kPa
  mass density: 934.96 ± 0.8 kg/m3
11650 kPa
  mass density: 935.12 ± 0.8 kg/m3
11675 kPa
  mass density: 935.29 ± 0.8 kg/m3
11700 kPa
  mass density: 935.45 ± 0.8 kg/m3
11725 kPa
  mass density: 935.61 ± 0.8 kg/m3
11750 kPa
  mass density: 935.78 ± 0.8 kg/m3
11775 kPa
  mass density: 935.94 ± 0.8 kg/m3
11800 kPa
  mass density: 936.1 ± 0.8 kg/m3
11825 kPa
  mass density: 936.26 ± 0.8 kg/m3
11850 kPa
  mass density: 936.43 ± 0.8 kg/m3
11875 kPa
  mass density: 936.59 ± 0.8 kg/m3
11900 kPa
  mass density: 936.74 ± 0.8 kg/m3
11925 kPa
  mass density: 936.92 ± 0.8 kg/m3
11950 kPa
  mass density: 937.07 ± 0.8 kg/m3
